In PubChem BioAssay AID179 (DTP/NCI, 2004):
pEC50, pIC50: −log10 of the molar value. Active and inactive are the calls of the source.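 The calls were made as follows: active = compounds giving half or more protection of infected cells from virus-caused growth loss, again on retest; inactive = the rest.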

Test system: CEM cells HIV-1 protection, formazan growth assay
Experiment: NCI AIDS Antiviral Assay
Conditions: for pIC50: measured here: growth of uninfected CEM cells
How it was run: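 Human CEM cells, uninfected and HIV-1-infected, received five drug concentrations, and growth was read by soluble formazan assay. Compounds giving at least 50% protection were retested; reproducible 100% protection defined confirmed active.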

SMILES | pEC50 | pIC50 | outcome
O=C1c2ccccc2Sc2ccccc2N1CCN1CCN(c2ccc(F)cc2)CC1 | < 3.70 | < 3.70 | –
COC1=CC(=O)[C@]2(C)[C@H](C1=O)C(C)[C@H]2c1ccc(OC)cc1 (some centres not stated) | < 4.06 | < 4.06 | –
O=C1N[C@@H](Cc2ccccc2)C(=O)N2CCCC[C@H]12 | – | – | inactive
COc1ccc(C2S/C(=C\c3cccc([N+](=O)[O-])c3)C(=O)N2NC(=O)Cc2ccccc2)cc1 (configuration not stated) | < 4.40 | < 4.40 | –
CCOc1ccc(/C=C2/C(=O)N=C(N)N=C2N)cc1OCC | – | – | inactive
Cc1ccc2c(c1)SCc1c-2[nH]c2ccccc12 | – | – | inactive
CN1CCC2(CC1)C(=O)N(Cc1ccccc1)C(=O)C2c1ccccc1 (configuration not stated) | < 3.43 | 3.67 | –
O=c1scc(-c2ccc([N+](=O)[O-])cc2)s1 | < 5.22 | < 5.22 | –
CCN(CC)OC(=O)/C=C/c1ccccc1 | – | – | inactive
CCOC(=O)C1(C)CC12CCCCC2 (configuration not stated) | < 3.70 | < 3.70 | –
CCOC(=O)/C(=C\c1ccc([N+](=O)[O-])cc1)P(=O)(OCC)OCC | < 4.69 | 4.99 | –
CC(C)C(N)S(=O)(=O)O (configuration not stated) | < 3.70 | < 3.70 | –
O=S1(=O)OCCCO1 | < 2.74 | < 2.74 | –
COc1ccc(C2Oc3cc(OC)c(OC)cc3C2CCl)cc1OC (configuration not stated) | < 3.70 | 3.97 | –
O=C(/C=C/c1c(O)ccc2ccccc12)c1ccc([N+](=O)[O-])cc1 | 4.47 | 4.23 | –
O=c1ncc2ccc([N+](=O)[O-])cc2[nH]1 | < 3.73 | 3.83 | –
NC(CCCC(N)P(=O)(O)O)P(=O)(O)O (configuration not stated) | – | – | inactive
N#Cc1c(N2CCN(c3ccc([N+](=O)[O-])cc3)CC2)[n+](=O)c2ccc(Cl)cc2n1[O-] | < 4.70 | 6.20 | –
CCCc1cc(=O)oc2c3c(cc(OC)c12)O[C@H](C)[C@H](C)C3=O | < 3.70 | 4.32 | –
C[C@@H]1N[C@@H](C)Cc2c(-c3ccc(O)c4ccccc34)c(O)cc(O)c21 | < 3.70 | 4.51 | –
O=S(=O)(O)c1ccc2c(N=NNc3ccc(NN=Nc4cccc5cc(S(=O)(=O)O)ccc45)cc3)cccc2c1 | < 3.12 | 3.34 | –
CN(C)C1C(=O)C(C(N)=O)=C(O)C2(O)C(=O)C3=C(O)c4c(O)cccc4C(C)(O)C3CC12.[Cl][Sb]([Cl])[Cl] (configuration not stated) | < 3.70 | 4.45 | –

SMILES | pEC50 | pIC50 | outcome
CCOC(=O)C(NC(=O)c1ccccc1)[CH](c1ccc(OC)cc1)[Sn]([c]1ccccc1)([c]1ccccc1)[c]1ccccc1 (configuration not stated) | 4.46 | 4.09 | –
CCOc1ccc(N)c(S)c1 | < 3.70 | 4.57 | –
COc1ccc(C(c2c(O)c3ccccc3oc2=O)N2CCCC2)c(OC)c1 (configuration not stated) | < 3.70 | 4.02 | –
CC1(c2ccccc2Cl)C(C#N)C(=O)NC(=O)C1C#N (configuration not stated) | < 4.04 | 4.33 | –
CC1=CC2O[C@@H]3C[C@@H](O)[C@](C)(C2(C)CC1=O)C31CO1 (some centres not stated) | < 3.70 | 5.43 | –
CC(C)CCC[C@@H](C)[C@H]1CC[C@H]2C3=C[C@H](OS(=O)(=O)O)[C@@]4(O)C[C@@H](O)CC[C@]4(C)[C@@]3(O)CC[C@]12C | < 3.70 | 4.01 | –
CCOP(=O)(OCC)/C(C#N)=C/c1c(C)[nH]c2ccccc12 | < 3.70 | 3.80 | –
C1=Nc2ccccc2/C1=C/c1c[nH]c2ccccc12 | 7.20 | < 3.70 | –
C/C(=N\Nc1ncnc2ccccc12)c1ccccn1 | < 6.70 | 7.59 | –
CC(C)N(C(=O)C12C3C4C5C3C1(C(=O)N(C(C)C)C(C)C)C5(C#N)C42)C(C)C (configuration not stated) | < 4.03 | < 4.03 | –
O=C1NC(=O)C(CCN2CCCCC2)(c2ccccc2)C(=O)N1 | < 3.70 | < 3.70 | –
CS(=O)(=O)c1[nH]nc2[nH]c(=O)[nH]c(=O)c12 | < 3.70 | < 3.70 | –
Nc1nc(Cl)nc(Cl)n1 | < 3.70 | < 3.70 | –
O=C(CC1Sc2ccccc2NC1=O)Nc1cc(Cl)ccc1Cl (configuration not stated) | < 4.15 | < 4.15 | –
COc1ccc(-c2cc(-c3ccco3)c(C#N)c(=O)n2C2OC(COC(C)=O)C(OC(C)=O)C(OC(C)=O)C2OC(C)=O)cc1 (configuration not stated) | < 4.94 | < 4.94 | –
O=C(O)c1cc(CNc2ccc(/C=C/c3ccc(NCc4ccc(O)c(C(=O)O)c4)cc3S(=O)(=O)O)c(S(=O)(=O)O)c2)ccc1O | 3.99 | 3.58 | –
Cc1cc2c(cc1C)[n+](=O)c(C(=O)CC(=O)C(=O)Nc1c(C(C)C)cccc1C(C)C)c(C)n2[O-] | < 5.10 | < 5.10 | –
CC1(C)OC(=C(C#N)C#N)C(C#N)=C1/C=C/c1ccncc1 | < 3.82 | 6.09 | –
CCSC(=O)NNc1nc2ccccc2s1 | < 3.70 | 4.20 | –
Cc1[nH]n(-c2nc(O)c(C)c(=O)[nH]2)c(=O)c1CCO | < 3.70 | < 3.70 | –
CC12C=NNC1(C)C(=O)C1(C)CN=NC1(C)C2=O (configuration not stated) | < 3.70 | < 3.70 | –
O=S(=O)(Nc1ccccc1Cl)c1ccccc1 | < 3.70 | 4.08 | –

SMILES | pEC50 | pIC50 | outcome
CCN(CC)CCOC(=O)CCN1CC2CCC(CC2)C1 | < 3.70 | < 3.70 | –
CC(=O)OCC1OC(n2c(Br)nc3c2c(=O)n(C)c(=O)n3C)C(OC(C)=O)C1OC(C)=O (configuration not stated) | < 3.70 | 4.16 | –
CC(C)=CCC[C@@H](C)C1=CC(=O)C(C)=C(O)C1=O | < 5.70 | 5.99 | –
O=CC(NC(=O)N(CCCl)N=O)C(O)C(O)C(O)CO (configuration not stated) | < 3.40 | < 3.40 | –
c1ccc(COC2C3COC(O3)C(OCc3ccccc3)C2OCc2ccccc2)cc1 (configuration not stated) | < 3.70 | 4.82 | –
CC(=O)O[C@@H]1C(=O)O[C@@H]2CO[C@H](c3ccccc3)O[C@H]12 | < 3.70 | < 3.70 | –
O=[N+]([O-])/C(Cl)=C/C(=C1/Nc2ccccc2O1)[N+](=O)[O-] | < 3.70 | 4.52 | –
Cc1ccc(S(=O)(=O)N/N=C(/CC(=O)c2c(C)n([O-])c3ccccc3[n+]2=O)C(=O)Nc2ccc(C)c(C)c2)cc1 | < 5.19 | < 5.19 | –
CC(=S)NNC(=O)c1ccncc1 | < 2.89 | 3.87 | –
O=c1cc(NNc2ccccc2)[nH]c(=S)[nH]1 | < 3.70 | 4.91 | –
COc1ccc(/C(Cl)=C(\CNc2ccccn2)c2ccccc2)cc1OC | < 3.70 | < 3.70 | –
c1cc(-c2csc(-c3ccsc3)c2)cs1 | < 3.70 | < 3.70 | –
O=c1oc2ccccc2c(O)c1C1c2c(c3ccccc3oc2=O)Oc2c1c(=O)oc1ccccc21 | – | – | inactive
Cc1cn(C2CC(N=[N+]=[N-])C(COC(=O)[C@@]3(O)CC[C@H]4[C@@H]5CCC6=CC(=O)CC[C@]6(C)[C@H]5C(O)C[C@@]43C)O2)c(=O)[nH]c1=O (some centres not stated) | 4.57 | 3.80 | –
CSc1nc(N)n(C(=O)c2ccccc2Br)n1 | < 3.38 | < 3.38 | –
COc1ccc(C(C#N)NC23CC4CC(CC(C4)C2)C3)cc1 (configuration not stated) | – | – | inactive
COC(=O)N/N=C(\C(=O)Nc1cccc([N+](=O)[O-])c1)c1nc2ccc([N+](=O)[O-])cc2[nH]c1=O | < 3.83 | < 3.83 | –
Cc1ccc(C)n1-c1ccccc1C1C=Cn2c(=O)nnc3c(OC(C)C)c(OC(C)C)c(O)c1c32 (configuration not stated) | < 3.70 | 4.59 | –
O=C(/C(=C/c1ccc(F)cc1)c1ccccc1)c1ccccc1 | < 5.18 | < 5.18 | –
NC(CSS(=O)(=O)O)=NC1CC1 | < 3.70 | < 3.70 | –
COC1C2c3cc4c(cc3CC(C#N)(c3ccccc32)N1C(=O)c1ccccc1)OCO4 (configuration not stated) | – | – | inactive
COC(=O)/C=C/c1ccc2c(c1)CC1(C2)Cc2cc3c(cc2C1=O)CCC3 (configuration not stated) | < 4.00 | < 4.00 | –

SMILES | pEC50 | pIC50 | outcome
COc1cc(/C=C2\CCC(C)C3=C(c4cc(OC)c(OC)c(OC)c4)C(C#N)=C(N)OC32)cc(OC)c1OC (configuration not stated) | – | – | inactive
CC(C)OC(=O)[C@@H]1OC(C)(C)O[C@H]1C(=O)OC(C)C | < 3.70 | < 3.70 | –
CC(C)C(/C=C/c1ccccc1)=N\NC(=O)N/N=C(/C=C/c1ccccc1)C(C)C | < 5.17 | < 5.17 | –
CCCCNC(=S)SSSC(=S)NCCCC | < 3.70 | 5.56 | –
Cc1ccnc(NC(=O)NC2CCCCC2)c1 | < 3.70 | 3.84 | –
S=c1nn[nH]n1-c1ccccc1.[Cd] | < 4.37 | 4.49 | –
COc1ccc(/C=N/NC(=O)c2ccc(OCc3nc4ccccc4[nH]3)cc2)cc1 | 3.75 | < 3.70 | –
Cc1cccc(C(C)(C)C)c1NC(=O)CC1Sc2ccccc2NC1=O (configuration not stated) | < 4.29 | < 4.29 | –
CCC(C)(C(=O)O)C(=O)O | < 3.70 | < 3.70 | –
CC1CCN(CCCCCNC(=O)C(c2ccccc2)C2CCCCC2)CC(C)(C)C1 (configuration not stated) | < 4.00 | 4.38 | –
CC(C)(C)c1cc(C(O)(C(=O)O)C(=O)O)cc(C(C)(C)C)c1O | < 3.70 | < 3.70 | –
C[C@]12CC[C@H]3[C@@H](C[C@@H](O)[C@]45C[C@@H]4CC[C@]35C)[C@@H]1CC[C@@]21C=CC(=O)O1 | < 3.70 | 4.02 | –
N/C(=N/N=C/c1cccc([N+](=O)[O-])c1)NO | – | – | inactive
Cc1nc2sc(CCl)nn2c(=O)c1Cl | < 3.70 | 5.40 | –
CC1C=C(CCCCCCCCCCCC[C@@H](O)[C@@H]2CC[C@@H]([C@@H]3CC[C@@H](C(O)CCCCCCCCCCCCC4=C[C@H](C)OC4=O)O3)O2)C(=O)O1 (some centres not stated) | < 3.70 | 6.69 | –
Cc1cccc(N(C=O)c2c(O)nc(N)[nH]c2=O)c1 | < 3.70 | < 3.70 | –
Cc1ccc(S(=O)(=O)NC(=O)NC23CC4CC(CC(F)(C4)C2)C3)cc1 | < 3.17 | 3.47 | –
Cc1ccc(-c2c3c(n(C4OC(CO)C(O)C(O)C4O)c(=S)c2C#N)CC(C)(C)CC3=O)cc1 (configuration not stated) | < 3.70 | 4.01 | –
O=C(O)CCSC(=O)Nc1ccccc1 | – | – | inactive
O=C1c2cccc3cccc(c23)C(=O)N1CC1CCCO1 (configuration not stated) | – | – | inactive
CC(=O)O[C@]12CCCCC1C1(O)C(O)CCCC[C@H]12 (some centres not stated) | < 3.70 | < 3.70 | –
